Source: the supplement of paper PMC10307832

Columns and labels:
Experiment in all cases: relative viability (nuclei count vs DMSO), 5 days (fraction); higher = more cells survive
XMD13-2 + Dasatinib = compound: C1CC1C(=O)NC2=NNC3=C2C=CC(=C3)C4=CC(=CC=C4)C(=O)NC5CC5 [XMD13-2] + Cc1nc(Nc2ncc(C(=O)Nc3c(C)cccc3Cl)s2)cc(N2CCN(CCO)CC2)n1 [Dasatinib] (partner 0.075 µM)
Method in brief: (§1)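 Lung cancer cell lines in 1536-well plates were dosed by pin tool the day after seeding, either with one drug alone or with a fixed anchor-drug dose plus five library-drug doses (not always all listed) in √10 steps. After 5 days, cells were fixed and their nuclei stained in one step (final 0.05% Triton X-100, 1% formaldehyde, 1 ug/ml Hoechst), then counted on 4× images. Relative viability is the nuclei count in treated wells divided by that in vehicle wells. Values are medians of duplicate plates.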

XMD13-2 + Trametinib = compound: C1CC1C(=O)NC2=NNC3=C2C=CC(=C3)C4=CC(=CC=C4)C(=O)NC5CC5 [XMD13-2] + CC(=O)Nc1cccc(-n2c(=O)n(C3CC3)c(=O)c3c(Nc4ccc(I)cc4F)n(C)c(=O)c(C)c32)c1 [Trametinib] (partner 0.02 µM)
Method in brief: as §1

ALW-II-49-7 + Trametinib = compound: Cc1ccc(C(=O)Nc2cccc(C(F)(F)F)c2)cc1Nc1cncc(C(N)=O)c1 [ALW-II-49-7] + CC(=O)Nc1cccc(-n2c(=O)n(C3CC3)c(=O)c3c(Nc4ccc(I)cc4F)n(C)c(=O)c(C)c32)c1 [Trametinib] (partner 0.02 µM)
Method in brief: as §1

XMD13-2 + Tozasertib = compound: C1CC1C(=O)NC2=NNC3=C2C=CC(=C3)C4=CC(=CC=C4)C(=O)NC5CC5 [XMD13-2] + Cc1cc(Nc2cc(N3CCN(C)CC3)nc(Sc3ccc(NC(=O)C4CC4)cc3)n2)n[nH]1 [Tozasertib] (partner 0.1 µM)
Method in brief: as §1

Cell Line | relative viability (XMD13-2 + Dasatinib; first compound 0.05 µM) | relative viability (XMD13-2 + Dasatinib; first compound 0.1581 µM) | relative viability (XMD13-2 + Dasatinib; first compound 0.5 µM) | relative viability (XMD13-2 + Dasatinib; first compound 1.581 µM) | relative viability (XMD13-2 + Dasatinib; first compound 5 µM) | relative viability (XMD13-2 + Trametinib; first compound 0.05 µM) | relative viability (XMD13-2 + Trametinib; first compound 0.1581 µM) | relative viability (XMD13-2 + Trametinib; first compound 0.5 µM) | relative viability (XMD13-2 + Trametinib; first compound 1.581 µM) | relative viability (XMD13-2 + Trametinib; first compound 5 µM) | relative viability (ALW-II-49-7 + Trametinib; first compound 0.08 µM) | relative viability (ALW-II-49-7 + Trametinib; first compound 0.253 µM) | relative viability (ALW-II-49-7 + Trametinib; first compound 0.8 µM) | relative viability (ALW-II-49-7 + Trametinib; first compound 8 µM) | relative viability (XMD13-2 + Tozasertib; first compound 0.05 µM) | relative viability (XMD13-2 + Tozasertib; first compound 0.1581 µM) | relative viability (XMD13-2 + Tozasertib; first compound 0.5 µM) | relative viability (XMD13-2 + Tozasertib; first compound 1.581 µM) | relative viability (XMD13-2 + Tozasertib; first compound 5 µM) | relative viability (ALW-II-49-7 + Trametinib; first compound 2.53 µM)
NCI-H1395 | 0.459 | 0.428 | 0.402 | 0.394 | 0.441 | 1.05 | 1.01 | 1.06 | 0.966 | 1.04 | 0.906 | 1.1 | 1.3 | 0.938 | 0.716 | 0.735 | 0.796 | 0.787 | 0.807 | 
NCI-H1437 | 0.409 | 0.442 | 0.397 | 0.352 | 0.556 | 0.598 | 0.49 | 0.482 | 0.498 | 0.417 | 0.486 | 0.573 | 0.332 | 0.509 | 0.427 | 0.438 | 0.411 | 0.395 | 0.404 | 0.512
NCI-H1650 | 0.268 | 0.367 | 0.318 | 0.282 | 0.296 | 0.852 | 0.663 | 0.65 | 0.526 | 0.695 | 0.438 | 0.688 | 0.557 | 0.78 | 0.439 | 0.36 | 0.471 | 0.381 | 0.588 | 0.666
NCI-H1651 | 0.508 | 0.351 | 0.423 | 0.374 | 0.538 | 0.909 | 0.843 | 0.789 | 0.869 | 0.834 | 0.839 | 0.772 | 0.824 | 0.808 | 0.721 | 0.807 | 0.64 | 0.759 | 0.672 | 0.781
NCI-H1666 | 0.789 | 0.852 | 0.861 | 0.813 | 0.851 | 0.745 | 0.937 | 0.89 | 0.799 | 0.987 | 0.864 | 0.927 | 0.865 | 0.803 | 0.662 | 0.602 | 0.595 | 0.623 | 0.518 | 0.948
NCI-H1734 | 0.493 | 0.419 | 0.484 | 0.373 | 0.428 | 0.783 | 0.653 | 0.753 | 0.662 | 0.627 | 0.641 | 0.749 | 0.668 | 0.593 | 0.258 | 0.245 | 0.271 | 0.228 | 0.205 | 0.622
NCI-H1755 | 0.526 | 0.425 | 0.418 | 0.459 | 0.428 | 0.821 | 0.714 | 0.722 | 0.754 | 0.697 | 0.724 | 0.879 | 0.786 | 0.681 | 0.664 | 0.575 | 0.498 | 0.543 | 0.494 | 0.747
NCI-H1793 | 0.457 |  | 0.41 | 0.4 | 0.429 | 0.524 | 0.442 | 0.407 | 0.432 | 0.444 | 0.365 | 0.404 | 0.486 | 0.443 | 0.432 |  | 0.334 | 0.379 | 0.322 | 0.409
NCI-H1915 | 0.362 | 0.342 | 0.322 | 0.302 | 0.305 | 0.392 | 0.289 | 0.318 | 0.284 | 0.35 | 0.305 | 0.383 | 0.334 | 0.262 | 0.48 | 0.488 | 0.48 | 0.412 | 0.335 | 0.251
NCI-H1944 | 0.226 | 0.236 | 0.229 | 0.235 | 0.213 | 0.486 | 0.393 | 0.429 | 0.458 | 0.411 | 0.405 | 0.427 | 0.418 | 0.405 | 0.275 | 0.243 | 0.229 | 0.239 | 0.221 | 0.339
NCI-H1975 | 0.444 | 0.361 | 0.467 | 0.324 | 0.393 | 0.27 | 0.327 | 0.375 | 0.358 | 0.382 | 0.384 | 0.581 | 0.288 | 0.311 | 0.967 | 0.739 | 0.735 | 0.631 | 0.72 | 0.367
NCI-H1993 | 0.601 | 0.44 | 0.526 | 0.519 | 0.573 | 0.563 | 0.504 | 0.508 | 0.507 | 0.539 | 0.583 | 0.481 | 0.648 | 0.445 | 0.627 | 0.529 | 0.565 | 0.615 | 0.545 | 0.608
NCI-H2009 | 0.366 | 0.277 | 0.432 | 0.288 | 0.278 | 0.344 | 0.271 | 0.29 | 0.307 | 0.264 | 0.247 | 0.32 | 0.299 | 0.266 | 0.849 | 0.7 | 0.798 | 0.728 | 0.749 | 0.341
NCI-H2023 | 0.806 | 0.545 | 0.688 | 0.559 | 0.64 | 0.621 | 0.54 | 0.555 | 0.561 | 0.633 | 0.468 | 0.557 | 0.69 | 0.53 | 0.524 | 0.34 | 0.372 | 0.281 | 0.309 | 0.503
NCI-H2085 | 0.265 | 0.246 | 0.232 | 0.235 | 0.243 | 0.62 | 0.568 | 0.472 | 0.5 | 0.514 | 0.534 | 0.512 | 0.477 | 0.518 | 0.824 | 0.806 | 0.905 | 0.821 | 0.754 | 0.562
NCI-H2087 | 0.997 | 0.826 | 0.938 | 0.87 | 0.796 | 0.194 | 0.196 | 0.198 | 0.198 | 0.23 | 0.214 | 0.211 | 0.228 | 0.188 | 0.264 | 0.239 | 0.268 | 0.223 | 0.207 | 0.189
